We go through two compounds from ChEMBL document CHEMBL1201862, “PubChem BioAssay data set” (2004).

Active and inactive are the calls of the source.

What all share (type): functional
Assay [1] addresses Insulin-like growth factor 1 receptor (Homo sapiens, UniProt P08069). As to the kind of experiment: Navigating the Kinome. Panel member name: IGF1R.
For assay [2], the target named is Mitogen-activated protein kinase 14 (Homo sapiens, UniProt Q16539).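 Also: part of a kinome-wide panel, MAPK14 entry.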
Assay [3] addresses Platelet-derived growth factor receptor alpha (Homo sapiens, UniProt P16234). As to the kind of experiment: Navigating the Kinome. Panel member name: PDGFRA.
For assay [4], the target named is Cyclin-dependent kinase 8 (Homo sapiens, UniProt P49336). As to the kind of experiment: Navigating the Kinome. Panel member name: CDK8.
The target in assay [5] is Cyclin-dependent kinase 7 (Homo sapiens, UniProt P50613).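 Also: value comes from a kinome-wide kinase profiling panel in which CDK7 is one member.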
Assay [6] has as its target cAMP-dependent protein kinase catalytic subunit alpha (Homo sapiens, UniProt P17612).
In assay [7] the target is Rho-associated protein kinase 1 (Homo sapiens, UniProt Q13464).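 Also: measured within a broad kinome-wide panel profiling many kinases.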
For assay [8], the target named is Dual specificity mitogen-activated protein kinase kinase 1 (Homo sapiens, UniProt Q02750). As to the kind of experiment: Navigating the Kinome. Panel member name: MAP2K1.
Assay [9] addresses Serine/threonine-protein kinase PAK 4 (Homo sapiens, UniProt O96013).
Assay [10] deals with T1, Tyrosine-protein kinase JAK3 (Homo sapiens, UniProt P52333).
T1 sequence (P52333 whole entry): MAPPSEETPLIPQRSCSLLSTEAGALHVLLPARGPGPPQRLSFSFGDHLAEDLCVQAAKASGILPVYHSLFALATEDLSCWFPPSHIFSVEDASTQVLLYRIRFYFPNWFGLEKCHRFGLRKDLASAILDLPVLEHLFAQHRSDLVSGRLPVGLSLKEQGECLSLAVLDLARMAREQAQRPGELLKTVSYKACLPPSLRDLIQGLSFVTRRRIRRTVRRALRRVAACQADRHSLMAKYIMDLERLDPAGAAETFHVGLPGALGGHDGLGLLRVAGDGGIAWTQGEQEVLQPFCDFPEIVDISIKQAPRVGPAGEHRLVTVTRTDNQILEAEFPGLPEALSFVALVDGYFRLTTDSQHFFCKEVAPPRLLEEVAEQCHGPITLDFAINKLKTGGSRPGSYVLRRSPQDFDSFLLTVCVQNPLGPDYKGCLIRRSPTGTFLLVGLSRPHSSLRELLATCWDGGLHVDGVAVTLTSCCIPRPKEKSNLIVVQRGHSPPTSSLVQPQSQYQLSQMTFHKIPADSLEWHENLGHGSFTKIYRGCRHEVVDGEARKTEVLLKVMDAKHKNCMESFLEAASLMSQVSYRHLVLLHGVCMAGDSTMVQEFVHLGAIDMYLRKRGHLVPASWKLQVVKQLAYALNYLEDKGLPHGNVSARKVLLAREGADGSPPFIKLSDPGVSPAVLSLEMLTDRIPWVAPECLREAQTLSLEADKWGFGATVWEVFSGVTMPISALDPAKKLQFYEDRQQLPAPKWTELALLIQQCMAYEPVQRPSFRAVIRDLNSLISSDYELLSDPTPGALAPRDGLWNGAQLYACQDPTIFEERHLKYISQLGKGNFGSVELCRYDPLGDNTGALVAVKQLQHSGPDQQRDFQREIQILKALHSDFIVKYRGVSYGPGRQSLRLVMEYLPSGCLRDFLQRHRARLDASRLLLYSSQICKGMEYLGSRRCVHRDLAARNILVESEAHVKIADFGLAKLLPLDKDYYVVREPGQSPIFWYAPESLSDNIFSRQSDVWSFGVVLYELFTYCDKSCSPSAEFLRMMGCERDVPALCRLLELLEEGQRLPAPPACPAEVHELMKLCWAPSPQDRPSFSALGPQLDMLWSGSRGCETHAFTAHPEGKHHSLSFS

The target of assay [11] is Tyrosine-protein kinase receptor TYRO3 (Homo sapiens, UniProt Q06418).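 Also: TYRO3 value obtained as one member of a kinome-wide profiling panel.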
The next assay deals with T2, Activin receptor type-1 (Homo sapiens, UniProt Q04771).
T2 sequence (Q04771 whole entry): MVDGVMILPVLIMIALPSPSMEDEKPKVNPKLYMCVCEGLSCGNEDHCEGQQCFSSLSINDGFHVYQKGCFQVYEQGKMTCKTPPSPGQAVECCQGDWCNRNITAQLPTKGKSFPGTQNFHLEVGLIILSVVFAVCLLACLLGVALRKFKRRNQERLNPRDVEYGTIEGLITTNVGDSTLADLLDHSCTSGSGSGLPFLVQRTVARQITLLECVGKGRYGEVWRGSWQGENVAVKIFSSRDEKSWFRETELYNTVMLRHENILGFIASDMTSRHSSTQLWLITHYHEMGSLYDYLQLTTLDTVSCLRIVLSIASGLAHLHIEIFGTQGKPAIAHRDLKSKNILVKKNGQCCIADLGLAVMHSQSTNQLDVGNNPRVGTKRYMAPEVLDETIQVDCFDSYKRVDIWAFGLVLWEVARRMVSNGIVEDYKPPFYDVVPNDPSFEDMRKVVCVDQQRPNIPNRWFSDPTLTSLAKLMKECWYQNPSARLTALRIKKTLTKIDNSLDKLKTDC
As to the kind of experiment: Navigating the Kinome. Panel member name: ACVR1.

In assay [12] the target is Macrophage-stimulating protein receptor (Homo sapiens, UniProt Q04912). As to the kind of experiment: Navigating the Kinome. Panel member name: MST1R.
Assay [13] deals with Protein kinase C theta type (Homo sapiens, UniProt Q04759). As to the kind of experiment: Navigating the Kinome. Panel member name: PRKCQ.
Assay [14] has as its target Tyrosine-protein kinase Fyn (Homo sapiens, UniProt P06241).
Assay [15] deals with Casein kinase I isoform alpha (Homo sapiens, UniProt P48729).
Assay [16] deals with Dual specificity mitogen-activated protein kinase kinase 2 (Homo sapiens, UniProt P36507). As to the kind of experiment: Navigating the Kinome. Panel member name: MAP2K2.
Sequence of Dual specificity mitogen-activated protein kinase kinase 2 (P36507 whole entry): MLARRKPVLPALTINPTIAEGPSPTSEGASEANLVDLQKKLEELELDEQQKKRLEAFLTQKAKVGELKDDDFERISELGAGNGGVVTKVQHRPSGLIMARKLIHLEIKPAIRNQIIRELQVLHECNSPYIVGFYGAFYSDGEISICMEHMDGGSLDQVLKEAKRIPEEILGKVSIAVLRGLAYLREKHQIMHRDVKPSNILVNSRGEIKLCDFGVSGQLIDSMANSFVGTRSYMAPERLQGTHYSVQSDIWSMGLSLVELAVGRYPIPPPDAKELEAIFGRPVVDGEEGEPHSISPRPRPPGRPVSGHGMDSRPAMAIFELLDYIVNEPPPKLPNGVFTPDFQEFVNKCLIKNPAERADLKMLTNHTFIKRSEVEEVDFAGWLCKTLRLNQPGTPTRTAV

Sequence of Cyclin-dependent kinase 8 (P49336 whole entry): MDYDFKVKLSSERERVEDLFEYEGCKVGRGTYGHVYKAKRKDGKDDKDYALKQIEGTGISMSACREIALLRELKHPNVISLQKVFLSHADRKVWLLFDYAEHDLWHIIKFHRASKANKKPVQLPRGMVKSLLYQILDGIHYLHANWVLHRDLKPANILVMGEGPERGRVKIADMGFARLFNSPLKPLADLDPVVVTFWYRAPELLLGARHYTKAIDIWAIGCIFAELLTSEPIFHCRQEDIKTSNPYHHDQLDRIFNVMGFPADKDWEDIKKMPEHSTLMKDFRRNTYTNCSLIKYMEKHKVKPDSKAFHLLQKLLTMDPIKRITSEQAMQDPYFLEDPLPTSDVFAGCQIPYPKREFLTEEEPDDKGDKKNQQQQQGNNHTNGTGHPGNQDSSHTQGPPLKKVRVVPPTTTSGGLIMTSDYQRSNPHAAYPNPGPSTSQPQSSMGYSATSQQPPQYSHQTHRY
Sequence of Rho-associated protein kinase 1 (Q13464 whole entry): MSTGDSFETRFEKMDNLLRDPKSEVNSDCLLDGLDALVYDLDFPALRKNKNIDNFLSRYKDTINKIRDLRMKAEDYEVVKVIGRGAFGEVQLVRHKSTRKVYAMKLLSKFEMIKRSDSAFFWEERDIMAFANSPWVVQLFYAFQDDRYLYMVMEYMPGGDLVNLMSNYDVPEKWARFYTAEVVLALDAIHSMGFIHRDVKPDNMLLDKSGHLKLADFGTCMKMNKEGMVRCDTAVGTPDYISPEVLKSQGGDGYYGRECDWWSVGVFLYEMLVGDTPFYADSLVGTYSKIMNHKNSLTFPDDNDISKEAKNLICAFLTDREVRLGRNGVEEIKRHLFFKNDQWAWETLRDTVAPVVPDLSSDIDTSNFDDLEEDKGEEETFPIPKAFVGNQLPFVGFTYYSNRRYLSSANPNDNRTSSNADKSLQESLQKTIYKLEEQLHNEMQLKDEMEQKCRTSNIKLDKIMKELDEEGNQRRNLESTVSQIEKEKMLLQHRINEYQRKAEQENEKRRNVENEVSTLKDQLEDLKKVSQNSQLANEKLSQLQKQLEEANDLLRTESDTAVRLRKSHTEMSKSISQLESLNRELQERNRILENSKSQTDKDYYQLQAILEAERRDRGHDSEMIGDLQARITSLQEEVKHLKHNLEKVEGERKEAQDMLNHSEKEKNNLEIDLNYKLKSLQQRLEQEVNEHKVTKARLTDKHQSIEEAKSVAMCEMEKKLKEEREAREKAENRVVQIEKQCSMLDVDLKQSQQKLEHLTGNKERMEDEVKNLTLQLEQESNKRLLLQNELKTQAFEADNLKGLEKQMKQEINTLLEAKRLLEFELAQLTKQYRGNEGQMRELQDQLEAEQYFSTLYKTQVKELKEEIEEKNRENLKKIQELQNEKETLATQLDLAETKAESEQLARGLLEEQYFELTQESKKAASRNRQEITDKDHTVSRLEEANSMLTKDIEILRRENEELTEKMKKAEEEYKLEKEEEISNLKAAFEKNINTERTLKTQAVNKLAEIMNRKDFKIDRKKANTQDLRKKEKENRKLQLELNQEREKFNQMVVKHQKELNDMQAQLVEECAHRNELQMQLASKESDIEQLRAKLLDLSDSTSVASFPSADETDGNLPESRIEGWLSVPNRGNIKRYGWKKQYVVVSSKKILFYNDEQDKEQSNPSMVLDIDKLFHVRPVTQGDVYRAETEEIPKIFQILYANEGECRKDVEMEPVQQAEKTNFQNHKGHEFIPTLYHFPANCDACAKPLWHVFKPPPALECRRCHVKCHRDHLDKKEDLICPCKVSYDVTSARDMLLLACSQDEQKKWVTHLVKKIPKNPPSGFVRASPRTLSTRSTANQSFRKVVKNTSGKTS
Sequence of Serine/threonine-protein kinase PAK 4 (O96013 whole entry): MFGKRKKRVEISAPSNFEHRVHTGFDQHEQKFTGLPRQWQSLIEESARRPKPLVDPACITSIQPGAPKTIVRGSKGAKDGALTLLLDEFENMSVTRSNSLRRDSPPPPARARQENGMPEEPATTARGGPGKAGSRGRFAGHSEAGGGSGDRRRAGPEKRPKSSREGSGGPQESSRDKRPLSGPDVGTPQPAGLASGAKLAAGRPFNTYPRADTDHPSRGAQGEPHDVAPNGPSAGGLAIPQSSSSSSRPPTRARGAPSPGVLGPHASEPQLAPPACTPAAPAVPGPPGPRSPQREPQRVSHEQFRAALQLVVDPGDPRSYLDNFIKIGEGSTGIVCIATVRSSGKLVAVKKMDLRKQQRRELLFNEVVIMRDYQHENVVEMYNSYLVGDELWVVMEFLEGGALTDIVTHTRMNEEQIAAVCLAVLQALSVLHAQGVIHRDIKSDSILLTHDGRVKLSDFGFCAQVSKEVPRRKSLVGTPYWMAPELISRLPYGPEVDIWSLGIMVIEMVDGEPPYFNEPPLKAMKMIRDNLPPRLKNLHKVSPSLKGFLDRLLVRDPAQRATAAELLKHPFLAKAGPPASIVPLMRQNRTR
Sequence of Cyclin-dependent kinase 7 (P50613 whole entry): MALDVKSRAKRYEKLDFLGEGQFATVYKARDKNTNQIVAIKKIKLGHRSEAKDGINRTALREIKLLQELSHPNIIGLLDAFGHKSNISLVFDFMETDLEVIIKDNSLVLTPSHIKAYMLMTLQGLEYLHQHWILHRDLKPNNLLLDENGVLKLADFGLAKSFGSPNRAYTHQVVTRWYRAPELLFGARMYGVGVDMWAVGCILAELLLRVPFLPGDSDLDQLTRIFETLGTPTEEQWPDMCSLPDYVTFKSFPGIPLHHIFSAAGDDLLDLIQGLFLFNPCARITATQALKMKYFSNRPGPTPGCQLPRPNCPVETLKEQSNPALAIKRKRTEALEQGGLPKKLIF
Sequence of Macrophage-stimulating protein receptor (Q04912 25-304 limits assumed): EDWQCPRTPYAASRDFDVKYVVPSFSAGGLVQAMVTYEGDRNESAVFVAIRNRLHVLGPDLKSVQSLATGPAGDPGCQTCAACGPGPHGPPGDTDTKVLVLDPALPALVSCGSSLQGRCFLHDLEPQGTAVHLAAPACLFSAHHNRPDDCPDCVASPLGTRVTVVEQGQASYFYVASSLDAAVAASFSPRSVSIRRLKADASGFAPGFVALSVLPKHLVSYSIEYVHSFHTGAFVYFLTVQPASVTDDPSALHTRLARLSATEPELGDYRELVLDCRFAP
Sequence of Macrophage-stimulating protein receptor (Q04912 310-1400 limits assumed): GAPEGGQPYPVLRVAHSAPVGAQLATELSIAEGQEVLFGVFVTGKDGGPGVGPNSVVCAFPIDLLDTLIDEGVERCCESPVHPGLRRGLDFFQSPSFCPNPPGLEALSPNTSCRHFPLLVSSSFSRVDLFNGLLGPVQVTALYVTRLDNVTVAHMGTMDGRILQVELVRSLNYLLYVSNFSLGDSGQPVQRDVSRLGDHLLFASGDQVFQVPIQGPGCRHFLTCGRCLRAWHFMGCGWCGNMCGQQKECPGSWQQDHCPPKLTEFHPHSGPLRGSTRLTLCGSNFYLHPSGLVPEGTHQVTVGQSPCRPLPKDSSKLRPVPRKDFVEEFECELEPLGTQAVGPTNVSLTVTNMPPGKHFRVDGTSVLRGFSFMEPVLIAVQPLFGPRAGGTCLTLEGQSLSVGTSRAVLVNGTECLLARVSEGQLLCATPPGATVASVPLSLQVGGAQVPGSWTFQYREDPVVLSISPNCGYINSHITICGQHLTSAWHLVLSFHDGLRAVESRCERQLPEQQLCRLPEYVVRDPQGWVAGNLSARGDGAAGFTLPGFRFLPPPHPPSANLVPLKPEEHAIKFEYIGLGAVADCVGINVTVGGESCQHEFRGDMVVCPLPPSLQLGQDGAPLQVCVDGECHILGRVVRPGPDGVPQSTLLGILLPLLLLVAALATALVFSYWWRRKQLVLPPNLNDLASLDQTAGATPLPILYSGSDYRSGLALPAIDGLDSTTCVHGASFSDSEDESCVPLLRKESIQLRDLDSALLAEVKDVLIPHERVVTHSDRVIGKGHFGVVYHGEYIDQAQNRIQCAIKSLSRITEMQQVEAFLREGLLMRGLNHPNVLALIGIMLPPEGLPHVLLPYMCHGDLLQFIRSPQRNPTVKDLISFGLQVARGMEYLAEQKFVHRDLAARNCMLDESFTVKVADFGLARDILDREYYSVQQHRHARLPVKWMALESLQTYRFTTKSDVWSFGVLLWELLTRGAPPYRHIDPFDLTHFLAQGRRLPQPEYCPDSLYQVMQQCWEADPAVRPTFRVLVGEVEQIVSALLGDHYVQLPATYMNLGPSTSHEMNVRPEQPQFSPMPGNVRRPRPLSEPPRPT
Sequence of Dual specificity mitogen-activated protein kinase kinase 1 (Q02750 whole entry): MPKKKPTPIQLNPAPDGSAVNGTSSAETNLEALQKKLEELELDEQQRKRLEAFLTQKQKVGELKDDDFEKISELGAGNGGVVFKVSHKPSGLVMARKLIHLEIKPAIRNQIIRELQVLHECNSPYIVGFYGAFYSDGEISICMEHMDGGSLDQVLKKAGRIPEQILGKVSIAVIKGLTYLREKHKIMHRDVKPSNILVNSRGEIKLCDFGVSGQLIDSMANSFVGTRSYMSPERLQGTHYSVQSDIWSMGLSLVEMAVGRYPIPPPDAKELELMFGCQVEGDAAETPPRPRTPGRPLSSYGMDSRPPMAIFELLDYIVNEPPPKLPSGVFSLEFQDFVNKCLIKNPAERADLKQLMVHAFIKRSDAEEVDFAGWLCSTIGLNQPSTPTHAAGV

For `OC1CCC(Nc2nc(Cl)cc(-c3c[nH]c4ncccc34)n2)CC1` (configuration not stated), the Ki in assay [1] was > 2 µM (inactive); in assay [2], > 3.98 µM (inactive); in assay [3] it was 1 µM (active); in assay [4], 0.794 nM (active); in assay [5] it was 251 nM (active); in assay [6] it was 31.6 nM (active). The Ki was 7.94 nM (active) in [7]; 31.6 nM (active) in [8]; 25.1 nM (active) in assay [9]; 50.1 nM (active) in assay [10]; > 2 µM (inactive) in [11]; 1.26 µM (active) at Activin receptor type-1. Further, the inhibitory constant (Ki) is 100 nM (active) in assay [12]; 15.8 nM (active) in assay [13]; > 0.794 µM (inactive) in assay [14]; 63.1 nM (active) in assay [15]; 50.1 nM (active) in assay [16]. The pKi in [3] amounted to 6; in [4] it was 9.1; in assay [5], 6.6; in [6], 7.5; in assay [7] it was 8.1; in [8] it was 7.5. In addition, the negative logarithm of the Ki (pKi) was 7.6 in [9]; 7.3 in [10]; 5.9 at Activin receptor type-1; 7 in assay [12]; 7.8 in assay [13]; 7.2 in assay [15]. The negative logarithm of the Ki (pKi) in assay [16] turned out to be 7.3.

For the compound `COc1cccc(CNC(=O)c2cnc(-c3ccncc3)nc2)c1`, the Ki in assay [1] was > 2.51 µM (inactive); in [2], > 3.98 µM (inactive); in assay [3] it was > 2.51 µM (inactive); in [4] it was > 3980 nM (inactive); in assay [5], > 3980 nM (inactive); in assay [6], 316 nM (active). Besides, the Ki is 25.1 nM (active) in assay [7]; > 3160 nM (inactive) in [8]; > 5010 nM (inactive) in [9]; > 5010 nM (inactive) in assay [10]; > 3.16 µM (inactive) in assay [11]; > 3.98 µM (inactive) at Activin receptor type-1. Also, the Ki in [12] was > 3980 nM (inactive); in [13], 1000 nM (active); in [14] it was > 6.31 µM (inactive); in assay [15], > 3980 nM (inactive); in assay [16], > 3980 nM (inactive).

What is called Ki is the equilibrium dissociation constant of an inhibitor or competing ligand from its target. Usually pKi stands for −log10 of the Ki, conventionally taken in molar units.
